Measured values: patent US5382593A, “New 3-(hydroxybenzylidenyl)-indolin-2-ones” (Adir et Compagnie, priority 1992, dated 1995)

Columns and labels:
[1] = system: lipoxygenase, human polynuclear cells; experiment: Inhibition of LTB4 production (lipoxygenase) by human polynuclear cells activated by calcium ionophore A 23187; format: cell-based; details: concentration of 10^-5 M
Experimental: The production of the principal prostanoid, resulting from lipoxygenase, produced by human polynuclear cells: leucotriene B4 (LTB4) is measured by a radioimmunological assay.

[2] = system: cyclooxygenase of human granulocytes; experiment: Inhibition of PGE2 secretion (cyclooxygenase) by human granulocytes stimulated by calcium ionophore A23187; format: cell-based; details: concentration of 10^-5 M, A23187 5×10^-6 M, read-out: inhibition of the production of PGE2
Source text: The aim of this study is to measure the inhibiting activity of the compounds of the invention on the secretion of prostaglandin E2 (PGE2), one of the principal prostanoids produced by the cyclooxygenase of human granulocytes stimulated by the calcium ionophore A23187.
Human venous blood from blood donors who have not taken medicaments for 2 weeks is drawn into polypropylene tubes containing 1 volume of anti-coagulant (2.73% citric acid, 4.48% sodium citrate, 2% glucose) per 10 volumes of blood.
In the hour following taking the samples, 6% dextran is added to the blood (0.3 cm^3 /cm^3 of blood). After incubation for 30 min. at 37° C., the plasma rich in white corpuscles is centrifuged at a speed of 100 g for 5 min. at 4° C. […]
After centrifugation at a speed of 420 g for 30 min. at 4° C., the sediment rich in granulocytes is resuspended in 5 cm^3 of phosphate buffer and centrifuged at a speed of 100 g for 5 min. at 4° C. Finally, the granulocytes are counted and the density is adjusted to 3×10^6 cells/cm^3 of phosphate buffer.
The cells (3×10^6 cells/cm^3) are preincubated at 37° C. for 15 min. in the absence or presence of the products to be tested at the desired concentration. […] The base level is measured using cells without either the products to be tested or A23187. […]
The quantity of PGE2 produced is measured by a radioimmunological assay (RIA). […]

CC(C)(Sc1cc(C(C)(C)C)c(O)c(C(C)(C)C)c1)Sc1cc(C(C)(C)C)c(O)c(C(C)(C)C)c1 [probucol]
inhibition at 10 µM [1]: ~40% | inhibition at 10 µM [2]: ~40%
